# Columns and labels:
# [1] = system: occludin and ZO-1 in confluent HDLEC and HDBEC cells; experiment: Immunofluorescence analysis of tight junction proteins occludin and ZO-1; assay type: cell-based, human; conditions: IL-1beta alone 10 ng/ml, 1 hour
# Method: FIG. 11 reports the data of immunofluorescence analyses of occludin (upper boxes) and of the protein ZO-1 (lower boxes) in confluent HDLEC (A) and HDBEC (B) cells treated with the following stimuli: no stimulus, IL-1beta alone (10 ng/ml, 1 hour), mixture of the invention alone (10 micrograms/ml 18 hours); mixture of the invention (18 hours)+IL-1beta (1 hour). The confocal images were taken with 60× enlargement, the scale bar=10 micrometers.
# Occludin and ZO-1 were assessed as markers representative of tight endothelial junctions. The confluent cells express these markers, whereas they are reduced following treatment with IL-1beta.
# The proteins of occluding tight junction and zona occludens 1 (ZO-1) expressed on the cell surface were visualised using confocal analysis. The cells were plated 5×10^4 on 1 cm circular glass slides. After 24 hours the cells were washed and treated with the mentioned stimulants. The immunofluorescence analysis was carried out as reported in the materials and methods of Monti et al, Pharmacol Res 2013; 76:171-81.
# [2] = system: Human Dermal Lymphatic Endothelial Cells (HDLEC); experiment: Vascular (endothelial) permeability test, FITC-dextran passage through lymphatic endothelial monolayer; assay type: cell-based; conditions: IL-1β 10 ng/ml 1 h, no extract
# Method: In box A of FIG. 1 what is shown is the model in which lymphatic or hematic endothelial cells are measured in culture on a semi-permeable membrane, with presence of culture medium above and below said membrane, so as to allow the passage of components present in the medium when the cells are not strictly linked to one another, and FITCH-dextran molecules are inserted in the culture medium above the cells.
# Quantification by means of fluorescence of the FITC-dextran complex provides a measure of the permeability of the endothelium. […]
# The authors have therefore used a model, shown schematically in FIG. 1, to study the effects of various plant extracts on endothelia of blood or lymphatic vessels. […] The degree of permeability has been determined by way of experiment by measuring the amount of fluorescent probe that crosses the endothelial barrier separating the two compartments representing, respectively, the lumen of the vessel (above the semi-permeable membrane) and the interstice (below the semi-permeable membrane). […]
# The samples were assessed in 2-3 concentrations vs. vehicle alone on the cell cultures, untreated and treated with IL1beta (10 ng/ml), to understand if they have any effect in themselves on undamaged cells and if the tested substances are able to reverse the rise in permeability induced by IL1beta. […]
substance,measurement,setting,value
"IL-1β: interleukin beta, inflammatory agent used to raise endothelial permeability",tight junction markers occludin and ZO-1,[1],reduced
same,permeability of endothelial cells treated with IL-1β alone (healthy cells = 100%),[2],approximately 160%

# Reference: US10314877B2, “Method for lymph drainage” (ABOCA S.P.A. SOCIETÀ AGRICOLA, priority 2015, dated 2019)
